Where two headings read alike, the source gives them in different places.
Tests used:
Format in all cases: cell-based, Mycobacterium tuberculosis
[1] = tested on: M. tuberculosis CRISPRi purF knockdown strains
[2] = tested on: JNJ-6640-treated M. tuberculosis
[3] = tested on: M. tuberculosis H37Rv CRISPRi PurF low knockdown strain; assay: microbe, parasite or virus in culture

## Nc1ncnc2[nH]cnc12 [Adenine]
[1]
  effect on rescue of purF knockdown: limited effect
[2]
  effect of nucleobase addition on JNJ-6640-treated M. tuberculosis: no substantial effect

## COc1nc2ccc(Br)cc2cc1[C@@H](c1ccccc1)[C@@](O)(CCN(C)C)c1cccc2ccccc12 [Bedaquiline]
[3]
  EC50: 44 nM
  change in susceptibility following purF transcript knockdown: no change
[3]; Mycobacterium tuberculosis, H37RV
  EC50: 61 nM

## Nc1nc2nc[nH]c2c(=O)[nH]1 [Guanine]
[2]
  effect of nucleobase addition on JNJ-6640-treated M. tuberculosis: no substantial effect

## O=c1[nH]cnc2nc[nH]c12 [Hypoxanthine]
[1]
  concentration partially rescuing inhibition of de novo purine biosynthesis: exceeding 0.1 mM
[2]
  effect of nucleobase addition on JNJ-6640-treated M. tuberculosis: rescue
  rescue of JNJ-6640 activity: rescues JNJ-6640 activity

## O=c1[nH]c(=O)c2nc[nH]c2[nH]1 [Xanthine]
[2]
  effect of nucleobase addition on JNJ-6640-treated M. tuberculosis: no substantial effect

— publication PMC12328218 (Nature, 2025)
